Marks after values point to notes of the source that are not given here.
How the values were obtained:
Type in all cases: in vivo, rat
[1] = Weekly food intake of SHR rats
Description: (§1) 2.1 Grouping and administration of animals: 112 SHR rats (the female and male SHR rats are half and half, and the female rats are not pregnant) with the body weight of 200-250 g are taken, the rats are enabled to adapt to a laboratory for a period of 5 d, blood pressure is measured once at a day to enable the rats to adapt to the environment and detect stimulation. Then, weighing and numbering are carried out, and the SHR rats are equally divided into 14 groups randomly (each group comprises 8 rats), i.e., an SHR rat model control group, a positive control group (captopril, 27 mg/kg), a BZ large-dose group (120 mg/kg/d), a BZ small-dose group (60 mg/kg/d), a BA large-dose group (120 mg/kg/d), a BA small-dose group (60 mg/kg/d), a BL large-dose group (120 mg/kg/d), a BL small-dose group (60 mg/kg/d), a BM large-dose group (120 mg/kg/d), a BM small-dose group (60 mg/kg/d), a BD large-dose group (120 mg/kg/d), a BD small-dose group (60 mg/kg/d), a GB large-dose group (120 mg/kg/d) and a GB small-dose group (60 mg/kg/d). In addition, 8 healthy Wistar rats are taken as a normal control group. Intragastric administration is performed on the rats of each drug group separately according to the above-mentioned doses by 1 mL/100 g body weight, intragastric administration is performed on the rats of the normal control group and the rats of the SHR rat model control group with an equal volume of distilled water, and administration is performed continuously for 8 weeks.
(§2) 2.2 General state: during observation, conditions such as mind, water drinking, food intake, bowel movement, hair color, body weight and range of motion of rats are observed. Irritable degrees of the rats are divided into III levels: a level I means that the rats are free of obvious response when necks of the rats are seized; a level II means that the rats scream and startle when the necks of the rats are seized; and a level III means that the rats bite or rats of same cages frequently fight when the necks of the rats are seized.
(§3) 3.1 Influence on general state of spontaneously hypertensive rats: the rats of the normal control group are normal in food intake, drinking and motion conditions, sensitive in response, healthy and glossy in hair color, good in mental state and free of any unusual response; the rats of the SHR model group gradually present that back hair is fluffy, clustered and dim, the appetite is reduced, the body weight is reduced, the mind is dispirited and irritable, and the rats are prone to the behaviors of intense resisting, attacking and so on during administration and blood pressure detection, and irritable degrees are mostly changed to a level II and a level III from a level I; and after single administration of ginkgolide B and derivatives thereof, behavioral general state observations of rats of each group are free of obvious difference from those of the model control group.

[2] = test system: spontaneously hypertensive rats (SHR); assay: Caudal artery systolic pressure of spontaneously hypertensive rats, single administration; conditions: x ± s, n = 8
Description: as §1
(§4) 2.3 Blood pressure measuring: caudal artery systolic pressure of rats is measured with a Bp-6 noninvasive blood pressure measuring system. Under the condition that the rats are calm, the systolic pressure is continuously measured for 3 times, and the average value of the measured systolic pressure is taken as a pressure measuring result. Observation indexes: (1) single-administration pressure lowering effect: blood pressure of the rats is measured before administration and blood pressure conditions are measured 30 min, 60 min, 90 min and 120 min after first administration; and (2) continuous-administration pressure lowering condition: blood pressure is separately measured 30 min after administration at 1 d, 7 d, 13 d, 19 d, 25 d, 35 d, 49 d and 56 d, the blood pressure is repeatedly measured for 3 times at a day, and the average value of obtained values is taken as a final blood pressure value.

[3] = Weekly body weight of SHR rats
Description: as §1, §2, §3

[4] = test system: spontaneously hypertensive rats (SHR); assay: Caudal artery systolic pressure of spontaneously hypertensive rats, 8 weeks of continuous medication; conditions: x ± s, n = 8
Description: as §1, §4

[5] = 60 mg/kg/d intragastric, week 0
[6] = 60 mg/kg/d intragastric, week 1
[7] = 60 mg/kg/d intragastric, week 2
[8] = 60 mg/kg/d intragastric, week 3
[9] = 60 mg/kg/d intragastric, week 4
[10] = 60 mg/kg/d intragastric, week 5
[11] = 60 mg/kg/d intragastric, week 6
[12] = 60 mg/kg/d intragastric, week 7
[13] = 60 mg/kg/d intragastric, week 8
[14] = 120 mg/kg/d intragastric, week 0
[15] = 120 mg/kg/d intragastric, week 1
[16] = 120 mg/kg/d intragastric, week 2
[17] = 120 mg/kg/d intragastric, week 3
[18] = 120 mg/kg/d intragastric, week 4
[19] = 120 mg/kg/d intragastric, week 5
[20] = 120 mg/kg/d intragastric, week 6
[21] = 120 mg/kg/d intragastric, week 7
[22] = 120 mg/kg/d intragastric, week 8

Q: With `CC1C(=O)OC2C(O)C34C5CC(C(C)(C)C)C36C(OC(=O)C6O)OC4(C(=O)O5)C12O` (stereo not shown) [GB, ginkgolide B] as the molecule, how does the “Average dairy food intake” value [1, 5] read?
A: 18.6 g/day

Q: And the “Average dairy food intake” value [1, 6]?
A: 20.1^▴ g/d

Q: What about the “Average dairy food intake” value [1, 7] of the same molecule?
A: 18.9^▴ g/d

Q: What about the “Average dairy food intake” value [1, 8] of the same molecule?
A: 17.7 g/day

Q: And the “Average dairy food intake” value [1, 9]?
A: 18.6^▴ g/d

Q: And the “Average dairy food intake” value [1, 10]?
A: 21.7^▴▴ g/d

Q: And the “Average dairy food intake” value [1, 11]?
A: 23.5^▴▴ g/d

Q: And the “Average dairy food intake” value [1, 12]?
A: 24.2^▴▴ g/d

Q: What about the “Average dairy food intake” value [1, 13] of the same molecule?
A: 25.4^▴▴ g/d

Q: What about the “Average dairy food intake” value [1, 14] of the same molecule?
A: 18.3 g/day

Q: And the “Average dairy food intake” value [1, 15]?
A: 20.6^▴▴ g/d

Q: What about the “Average dairy food intake” value [1, 16] of the same molecule?
A: 19.5^▴ g/d

Q: And the “Average dairy food intake” value [1, 17]?
A: 20.6^▴▴ g/d

Q: And the “Average dairy food intake” value [1, 18]?
A: 21.4^▴▴ g/d

Q: What about the “Average dairy food intake” value [1, 19] of the same molecule?
A: 22.8^▴▴ g/d

Q: And the “Average dairy food intake” value [1, 20]?
A: 24.6^▴▴ g/d

Q: And the “Average dairy food intake” value [1, 21]?
A: 26.8^▴▴ g/d

Q: What about the “Average dairy food intake” value [1, 22] of the same molecule?
A: 28.2^▴▴ g/d

Q: What about the Systolic pressure ([2]; 60 mg/kg intragastric single administration, 30 min) of the same molecule?
A: 160.42 ± 9.56 mmHg

Q: And the Systolic pressure ([2]; 60 mg/kg intragastric single administration, 60 min)?
A: 153.15 ± 12.51 mmHg

Q: And the Systolic pressure ([2]; 60 mg/kg intragastric single administration, 90 min)?
A: 155.16 ± 11.26 mmHg

Q: And the Systolic pressure ([2]; 60 mg/kg intragastric single administration, 120 min)?
A: 159.17 ± 11.63 mmHg

Q: And the Systolic pressure ([2]; 60 mg/kg intragastric single administration, before administration)?
A: 168.41 ± 12.30 mmHg

Q: What about the Systolic pressure ([2]; 120 mg/kg intragastric single administration, 30 min) of the same molecule?
A: 151.46 ± 16.27 mmHg

Q: And the Systolic pressure ([2]; 120 mg/kg intragastric single administration, 60 min)?
A: 157.54 ± 17.95 mmHg

Q: What about the Systolic pressure ([2]; 120 mg/kg intragastric single administration, 90 min) of the same molecule?
A: 160.26 ± 16.54 mmHg

Q: What about the Systolic pressure ([2]; 120 mg/kg intragastric single administration, 120 min) of the same molecule?
A: 152.21 ± 18.27 mmHg

Q: And the Systolic pressure ([2]; 120 mg/kg intragastric single administration, before administration)?
A: 167.49 ± 13.09 mmHg

Q: What about the Body weight [3, 5] of the same molecule?
A: 230.8 g

Q: And the Body weight [3, 6]?
A: 235.6 g

Q: And the Body weight [3, 7]?
A: 243.1^▴ g

Q: And the Body weight [3, 8]?
A: 250.2 g

Q: And the Body weight [3, 9]?
A: 258.9^▴ g

Q: What about the Body weight [3, 10] of the same molecule?
A: 262.4 g

Q: What about the Body weight [3, 11] of the same molecule?
A: 268.7^▴ g

Q: What about the Body weight [3, 12] of the same molecule?
A: 280.6^▴▴ g

Q: And the Body weight [3, 13]?
A: 290.1^▴▴ g

Q: What about the Body weight [3, 14] of the same molecule?
A: 231.0 g

Q: What about the Body weight [3, 15] of the same molecule?
A: 250.3^▴▴ g

Q: What about the Body weight [3, 16] of the same molecule?
A: 258.7^▴▴ g

Q: And the Body weight [3, 17]?
A: 263.4^▴▴ g

Q: What about the Body weight [3, 18] of the same molecule?
A: 270.6^▴▴ g

Q: What about the Body weight [3, 19] of the same molecule?
A: 281.5^▴▴ g

Q: And the Body weight [3, 20]?
A: 290.6^▴▴ g

Q: And the Body weight [3, 21]?
A: 306.7^▴▴ g

Q: What about the Body weight [3, 22] of the same molecule?
A: 321.2^▴▴ g

Q: And the Systolic pressure ([4]; 60 mg/kg/d intragastric continuous, 1 d, 30 min after administration)?
A: 155.67 ± 12.36 mmHg

Q: And the Systolic pressure ([4]; 60 mg/kg/d intragastric continuous, 7 d, 30 min after administration)?
A: 153.46 ± 10.74 mmHg

Q: What about the Systolic pressure ([4]; 60 mg/kg/d intragastric continuous, 13 d, 30 min after administration) of the same molecule?
A: 156.25 ± 10.84 mmHg

Q: What about the Systolic pressure ([4]; 60 mg/kg/d intragastric continuous, 19 d, 30 min after administration) of the same molecule?
A: 150.68 ± 9.78 mmHg

Q: What about the Systolic pressure ([4]; 60 mg/kg/d intragastric continuous, 25 d, 30 min after administration) of the same molecule?
A: 155.65 ± 10.57 mmHg

Q: And the Systolic pressure ([4]; 60 mg/kg/d intragastric continuous, 35 d, 30 min after administration)?
A: 154.25 ± 10.74 mmHg

Q: And the Systolic pressure ([4]; 60 mg/kg/d intragastric continuous, 49 d, 30 min after administration)?
A: 150.56 ± 10.42 mmHg

Q: What about the Systolic pressure ([4]; 60 mg/kg/d intragastric continuous, 56 d, 30 min after administration) of the same molecule?
A: 153.85 ± 9.24 mmHg

Q: What about the Systolic pressure ([4]; 60 mg/kg/d intragastric continuous, before administration) of the same molecule?
A: 168.41 ± 12.30 mmHg

Q: What about the Systolic pressure ([4]; 120 mg/kg/d intragastric continuous, 1 d, 30 min after administration) of the same molecule?
A: 150.63 ± 10.25 mmHg

Q: What about the Systolic pressure ([4]; 120 mg/kg/d intragastric continuous, 7 d, 30 min after administration) of the same molecule?
A: 148.54 ± 9.27 mmHg

Q: What about the Systolic pressure ([4]; 120 mg/kg/d intragastric continuous, 13 d, 30 min after administration) of the same molecule?
A: 141.74 ± 8.26 mmHg

Q: And the Systolic pressure ([4]; 120 mg/kg/d intragastric continuous, 19 d, 30 min after administration)?
A: 140.95 ± 12.04 mmHg

Q: And the Systolic pressure ([4]; 120 mg/kg/d intragastric continuous, 25 d, 30 min after administration)?
A: 147.46 ± 9.85 mmHg

Q: What about the Systolic pressure ([4]; 120 mg/kg/d intragastric continuous, 35 d, 30 min after administration) of the same molecule?
A: 142.33 ± 10.38 mmHg

Q: And the Systolic pressure ([4]; 120 mg/kg/d intragastric continuous, 49 d, 30 min after administration)?
A: 138.79 ± 11.58 mmHg

Q: What about the Systolic pressure ([4]; 120 mg/kg/d intragastric continuous, 56 d, 30 min after administration) of the same molecule?
A: 135.28 ± 7.48 mmHg

Q: What about the Systolic pressure ([4]; 120 mg/kg/d intragastric continuous, before administration) of the same molecule?
A: 167.49 ± 13.09 mmHg

— patent publication US10875874B2, “Ginkgolide B derivative and preparation method and use thereof” (Chengdu Baiyu Ginkgolide Pharmaceuticals Co., Ltd., priority 2015, dated 2020)
